Source: PMC7394103 (Frontiers in Pharmacology, 2020)
Structures can show the parent of a compound that is named as a salt. Where two headings read alike, the source gives them in different places.

How the values were obtained:
[1] = test system: CIA in DBA1/J mice; settings: ref Schepetkin et al., 2015, cited from earlier work
[2] = test system: c-Jun phosphorylation in FLS; set-up: method as in Schepetkin et al., 2015; settings: ref Schepetkin et al., 2015; cited from earlier work
[3] = set-up: method as in Plotnikov et al., 2020; settings: rats, i.p.; ref Plotnikov et al., 2020; cited from earlier work
[4] = set-up: method as in Schepetkin et al., 2012; settings: mice, 30 mg/kg i.p., serum; ref Schepetkin et al., 2012; cited from earlier work
[5] = test system: IL-6 secretion by synovial SW982 cells; assay: IL-1β-induced IL-6 secretion by SW982 cells (ELISA); assay type: cell-based, human; settings: Homo sapiens, SW982; shorter incubation period (12 h), TRYP absent; read-out: IC50, IL-1β-induced IL-6 secretion by SW982 cells
Protocol: FLS, HUVEC, SW982, and THP-1 cells were plated in 96 well plates (10^4 to 10^5 cells/well) for 48 h before treatment. At 2 days post-confluency, the cells were serum-starved and washed twice (with the exception of THP-1 cell, which were not washed) with FBS-free medium prior to the addition of test compounds. […] Culture supernatants were collected and stored at –80°C. The levels of MMP-1 and MMP-3 were determined in culture supernatants using commercially available ELISA kits according to the manufacturer’s instructions (R&D System, Minneapolis, MN, USA). IL-6 levels were also determined in the supernatants using a human IL-6 ELISA kit (BD Biosciences, San Jose, CA, USA).

ON=C1c2ccccc2-c2nc3ccccc3nc21 [IQ-1S, 11H-indeno[1,2-b]quinoxalin-11-one oxime salt]
reduction of arthritis in the CIA model ([1]; 5 mg/kg i.p.): not very effective | reduction of arthritis in the CIA model ([1]; 30 and 50 mg/kg i.p.): equally effective | c-Jun phosphorylation [2]: inhibited c-Jun phosphorylation | half-life in circulation [3]: 12 h | time of peak serum concentration [3]: 5 min | AUC 0–12 h [4]: 7.4 µM·h

O=C1c2ccccc2-c2nc3ccccc3nc21 [IQ-18]
anti-inflammatory activity or therapeutic effects in CIA ([1]; 2012, Schepetkin et al.): did not have any anti-inflammatory activity or therapeutic effects in CIA

Oc1c2ccccc2c2c3c(cccc13)N=N2 [SP600125, reference compound]
IC50 [5]: 1300 ± 500 nM
